Data published in patent US10864192B2, “Compositions and methods for inhibiting brain trauma-induced neurodegeneration and related conditions” (priority 2016, dated 2020).
Where “and” joins values, the source holds several entries; their conditions need not be identical. Identical values can stand only once. Like-named read-outs stand apart in the source and are kept apart here.

How the values were obtained:
SH-SY5Y cells = assay: Cell proliferation of SH-SY5Y cells (MTS assay); assay type: cell-based, human; settings: 30 uM, 24 hr
Method: SHSYSY cells were exposed for 24 hr to 30 uM concentration of (−)- and (+)-phenserine. After 24 hr cell proliferation was determined by MTS assay. *P,0.05, **p,0.01, and ***p,0.001 compared to control samples without drug.

[1] = Estimated EC50/IC50 of phenserine and metabolites for pharmacological activity in brain
[2] = Plasma concentrations of phenserine and its metabolites in beagle dog plasma; assay type: in vivo; settings: beagle, in vivo; for concentration at 1 h: Hour 1; for concentration at 2 h: Hour 2; for concentration at 3 h: Hour 3; for concentration at 4 h: Hour 4
[3] = Plasma concentrations of phenserine and its metabolites in wistar rat plasma; settings: in vivo; for concentration at 1 h: Hour 1; for concentration at 2 h: Hour 2
clinical = settings: for t1/2 /Elim / Estimated Brain CMax: 15 mg immediate release dose; for Estimated Brain CMax: from plasma CMax and brain:plasma partitioning; for Cmax: human, in vivo, 15 mg
From the text: FIGS. 33-34 depict two graphs from an Excel spreadsheet. FIG. 33 is a linear plot of plasma level vs time and FIG. 34 is a semi-log plot of plasma conc. vs time.

[4] = Plasma concentrations of phenserine and its metabolites in human plasma; assay type: in vivo; settings: both sexes, in vivo; for concentration at 1 h: Hour 1; for concentration at 2 h: Hour 2; for concentration at 3 h: Hour 3; for concentration at 4 h: Hour 4
Method: The relationship between pharmacokinetic and pharmacodynamics evaluated in FIG. 15 was evaluated in aged volunteers. A total of 32 subjects (60-80 years of age, 11 males/21 females) were screened and enrolled. All participants provided informed consent, the conduct of the study were approved and overseen by the local Review IRB.
For pharmacokinetic (blood concentrations of primary drug and select metabolites) a dose […] additionally was evaluated.
These were centrifuged within 15 min of collection, and stored in a freezer at −70° C. freezer in marked polypropylene tubes until analysis. Phenserine levels were quantified by liquid chromatography/mass spectrometry (LC/MS/MS). In brief, analyses were undertaken on Perkin-Elmer (PE, Norwalk, USA) high performance liquid chromatographic (HPLC) instrumentation. Compound separation was performed on a Phenomenex LUNA C18 column (5 μM, 2.0 mm×150 mm; Torrance, USA), with a Phenomenex guard column (2 mm×30 mm). The mobile phase was 60% acetonitrile (HPLC grade) plus 40% ammonium acetate (v/v) with a flow rate of 0.4 mL/min. […] Thereafter, 2 mL of tert-butyl methyl ether was added and the sample was mixed and flash frozen. The organic layer was decanted, dried under a stream of nitrogen and reconstituted into 250 μL of mobile phase. Of this, a 60 μL sample was then injected into the HPLC.

[5] = in vivo
SH-SY5Y neuronal cells = assay: Phenserine plus anti-inflammatory drug, oxidative stress and trophic effects in SH-SY5Y cells (MTS assay)
Method: Human SH-SY5Y neuronal cells were seeded in 96-well plates at a density of 1×10^5 cells per well and allowed to grow for 24 hr. […] […] At 18 hr thereafter a MTS assay was performed per the manufacturers protocol (Abcam, Cambridge, Mass.) to measure cell viability.
For example, instead of aspirin (as shown in FIG. 3A), an NSAID, naproxen, was used under the same experimental conditions at concentrations in FIGS. 3B-3D.

SMILES	Estimated EC50 [1]	concentration at 1 h [2] [ng/mL]	concentration at 2 h [2] [ng/mL]	concentration at 3 h [2] [ng/mL]	concentration at 4 h [2] [ng/mL]	concentration at 1 h [3] [ng/mL]	concentration at 2 h [3] [ng/mL]	t1/2 /Elim (clinical) [h]	Estimated Brain CMax (clinical)	Cmax (clinical)	concentration at 1 h [4] [ng/mL]	concentration at 2 h [4] [ng/mL]	concentration at 3 h [4] [ng/mL]	concentration at 4 h [4] [ng/mL]	brain:blood partition [5]	other results
CN1CC[C@]2(C)c3cc(OC(=O)Nc4ccccc4)ccc3N(C)[C@H]12 [(+)-phenserine, reference compound]																cell proliferation (neurotrophic actions) (SH-SY5Y cells): increasing cellular proliferation
CN1CC[C@@]2(C)c3cc(OC(=O)Nc4ccccc4)ccc3N[C@@H]12 [N8-nor-phensereine, (−)-N8-norphenylcarbamoyleseroline]	24-100 NanoMolar	33.4	28.2	9.06	7.88	96.4	69.2	1.51 to 1.76	17.7 ng/ml and 52.9 nM	11.2 ng/mL and 34.8 nM	11.2	7.38	4.28	3.61	approx. 6:1	
COc1ccc2cc([C@H](C)C(=O)O)ccc2c1 [naproxen, reference compound]																tolerability by SH-SY5Y neuronal cells (SH-SY5Y neuronal cells; 10 nM to 100,000 nM): well tolerated; trophic actions (SH-SY5Y neuronal cells; 10 nM to 100,000 nM): does not show activity
C[C@@]12CCN[C@@H]1Nc1ccc(OC(=O)Nc3ccccc3)cc12 [N1,N8-bisnor-phenserine, (−)-N1, N8-bisnorphenylcarbamoyleseroline]	100 NanoMolar	235	220	428	351	536	539	0.53 to 1.29		22.5 ng/mL and 73.3 nM	22.5	14.5	7.62	6.55	approx. 1.3:1	IC50 ([1]; BNPCE IC50+/−25, read-out: IC50 (estimated)): 22 nM; IC50 ([1]; pharmacological activity in brain, read-out: estimated IC50): 100 nM; Estimated Brain CMax (clinical; listed as N-1, N-8 BisNor P): 28.8 ng/ml and 95.0 nM
CN1c2ccc(OC(=O)Nc3ccccc3)cc2[C@]2(C)CCN[C@H]12 [N1-nor-phenserine, (−)-N1-norphenylcarbamoyleseroline]	24-100 NanoMolar	86.1	50.3	86.7	41.9	37.6	26.2	1.90 to 1.96	2.15 ng/ml and 6.6 nM	1.56 ng/mL and 4.8 nM	1.56	1.19	0.8	0.53	approx. 4:1	expected plasma levels (clinical; targeted 30 mg/d or 60 mg/d in sustained release formulation): > 1.0 ng/mL
CC(=O)Oc1ccccc1C(=O)O [ASA, acetylsalicylic acid, reference compound]																oxidative stress-induced cellular death (cell viability) (SH-SY5Y neuronal cells; ASA 10^−5 M, (−)-Phen 10^−7 M, 10^−6 M, H2O2 50 μM, 18 hr): no activity
